Eight compounds from patent EP4491625A1, “BENZO BICYCLIC COMPOUND, AND PREPARATION METHOD AND APPLICATION THEREOF” (Guangzhou Unirise Pharmaceutical Co., Ltd., priority 2022, dated 2023) can be followed below.

The nature of series [1]: Human liver microsome stability test. The format is in vitro ADME. The conditions noted are these: pH 7.4; human liver microsomes 0.5 mg/mL, 1 µM compound, NADPH, 37 °C. Here is the method:
Preparation of compound working solutions: A high-concentration stock solution of the subject and control drug verapamil powder was prepared in DMSO and diluted to a working solution of 100 µM with DMSO before use, with a final concentration of 1 µM of the subject and verapamil.
Preparation of phosphate buffer salt (100 mM, pH 7.4): 7.098 g of disodium hydrogen phosphate was weighed and dissolved ultrasonically in 500 mL of purified water as solution A. 3.400 g of potassium dihydrogen phosphate was weighed and dissolved ultrasonically in 250 mL of purified water as solution B. Solution B was added to the inside of solution A to give a pH of 7.4.
Preparation of 10 mM NADPH: An appropriate amount of NADPH is now weighed before the experiment and a working solution of 10 mM concentration is prepared from phosphate solution.
Preparation of the incubation system: The incubation system was prepared according to the following table, and the incubation system was preheated in a water bath at 37 °C for 10 minutes before use.
Transfer 25 µL of NADPH or phosphate buffer salt to the above incubation system and add 2.5 µL of 100 µM subject or verapamil. For NADPH-added samples, double-parallel preparations were performed; for NADPH-negative samples, single-parallel preparations were performed.
30 µL of the suspension was taken at 0.5, 5, 15, 30, and 60 min, respectively. The reaction was terminated by adding 150 µL of acetonitrile containing the internal standard and vortexed for 10 min.
This was followed by centrifugation at 3220 g for 40 min for protein precipitation. 100 µL of supernatant was transferred to the injection plate and mixed with 100 µL of pure water for UPLC-MS/MS analysis.
All data calculations were performed by Microsoft Excel software. Peak areas were detected by extracted ion mapping. The in vitro half-life (t1/2) of the parent drug was assayed by fitting the natural logarithm of the percentage elimination of the parent drug linearly with time.
The in vitro half-life (t1/2) was calculated by slope: t1/2 = 0.693 / k
The in vitro clearance (in µL/min/mg) was calculated using the following formula: CLint =0.693/ t1/2 * (Incubation system volume (μL) / protein content (mg)) [formula]
Table 3 the experimental results of human liver microsome of the compounds provided in some examples of the present invention
In general terms: Liver microsomes are vesicles of endoplasmic reticulum, rich in cytochrome P450 enzymes.

The target of another series is T1, GLP-1 receptor (Homo sapiens, UniProt P43220).
T1 construct: host or cells: HEK293
T1 sequence (P43220 24-463): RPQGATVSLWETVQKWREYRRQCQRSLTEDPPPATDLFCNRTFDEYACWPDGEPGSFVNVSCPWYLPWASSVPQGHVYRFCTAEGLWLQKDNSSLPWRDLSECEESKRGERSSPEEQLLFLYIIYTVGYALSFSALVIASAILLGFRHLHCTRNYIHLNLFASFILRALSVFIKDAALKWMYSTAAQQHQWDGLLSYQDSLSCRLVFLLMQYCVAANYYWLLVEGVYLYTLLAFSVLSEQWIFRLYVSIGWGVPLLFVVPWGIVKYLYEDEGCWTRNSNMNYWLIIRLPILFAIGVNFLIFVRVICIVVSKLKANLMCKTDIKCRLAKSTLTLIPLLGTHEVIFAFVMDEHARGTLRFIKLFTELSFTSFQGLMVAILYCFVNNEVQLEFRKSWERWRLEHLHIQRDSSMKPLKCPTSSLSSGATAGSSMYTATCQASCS
Briefly: cAMP detection assay of agonistic effect in HEK293 cells with high expression of hGLP-1R. The format is cell-based. Here is the method: The cells were constructed by Wuxi New Drug Development Co., Ltd. Shanghai.
The compound was prepared with DMSO to a working concentration of 100µM or 10µM. 10 points of 4-fold dilution (maximum concentration of 1000nM or 100nM after dilution) was done with Bravo V11.
The compound to be tested was diluted 4 times with Bravo to obtain 10 concentrations and the initial concentration was 100µM by Bravo V11. The initial concentration was 100µM.

Series [2] can be described thus: Pharmacokinetic study in rats (intravenous or gavage, plasma LC-MS/MS). The format is in vivo. The conditions noted are these: SD rats; for F: po 5 mg/kg versus iv 1 mg/kg; for AUC(0-t) / Cmax / Tmax / half-life: rat, plasma. How it is done:
SD rats: male, 6-8 weeks old, weighing 200-300 g, purchased from SPF ( Beijing ) Biotechnology Co.,Ltd..
At each PK sampling point, 200 µL of whole blood was collected into EDTA-K2 anticoagulant blood tubes and centrifuged at 4°C for 30 min to obtain plasma. Whole blood samples were placed on wet ice before centrifugation. All collected plasma samples were stored on dry ice or frozen until analyzed.
Approximately1 mg of the compound of the present application was weighed and dissolved in DMSO, vortexed and sonicated to obtain a 1 mg/mL standard stock solution. The standard stock solution was diluted with 50% aqueous acetonitrile to obtain standard working solutions with concentrations of 5, 10, 20, 50, 100, 500, 1000, 5000 and 10000 ng/mL. QC working solutions with concentrations of 10, 20, 500 and 8000 ng/mL were prepared using the same dilution method. These QC samples were prepared on the day of analysis in the same way as the standard curve samples.5 µL of standard working solution with concentrations of (5, 10, 20, 50, 100, 500, 1000, 5000 and 10000 ng/mL) was added to 50 µL of blank SD rat plasma to obtain a total volume of 55 µL with concentrations of 0.5-1000 ng/mL (0.5, 1, 2, 5, 10, 50, 100, 500, and 1000 ng/mL) of standard curve samples. QC samples with concentrations of (1 ng/ml (low-1) and 2 ng/ml (low-2), 50 ng/ml (medium), 800 ng/ml (high)) were configured separately.
55 µL of standard samples, 55 µL of QC samples or 55 µL of unknown samples (50 µL of plasma samples added to 5 µL of 50% aqueous acetonitrile) were added to 200 µL of acetonitrile containing an internal standard (dexamethasone) to precipitate proteins. […] The supernatant was taken and diluted 3-fold with water, and 5 µL of the supernatant dilution was injected into the LC-MS/MS system for quantitative analysis under the following assay conditions:
Column: HALO 90A Phenly-Hexyl, 2µm 2.1×30mm.
Pharmacokinetic parameters were calculated by the […] of Phoenix TM Winnonlin® 8.3 software.

Setting [3] is: agonistic effect, cAMP, HEK293 cells with high expression of hGLP-1R, read-out: EC50.

The structures appear in SMILES notation. pEC50: −log10 of the molar value. Where two headings read alike, the source gives them in different places.

With `O=C(O)c1ccc2nc(CC3CC=C(c4ncc(F)c(OCc5ccc(Cl)c6cc(F)oc56)n4)CC3)n(C[C@@H]3CCO3)c2n1` (stereo partly drawn) [Compound 5, 2-((4-(4-((4-chloro-2-fluorobenzofuran-7-yl)methoxy)-5-fluoropyrimidin-2-yl)cyclohex-3-en-1-yl)methyl)-3-(((S)-oxetan-2-yl)methyl)-3H-imidazo[4,5-b]pyridine-5-carboxylic acid], the half-life (in general, the time in which the quantity being followed falls by half) at 1 µM in series [1] is > 3.08 h.

Compound `O=C(O)c1cc2c(nc(CC3CC=C(c4cccc(OCc5ccc(Cl)c6cc(F)oc56)n4)CC3)n2C[C@@H]2CCO2)s1` (stereo partly drawn) [Compound 8, 2-((4-(6-((4-chloro-2-fluorobenzofuran-7-yl)methoxy)pyridin-2-yl)cyclohex-3-en-1-yl)methyl)-1-(((S)-oxetan-2-yl)methyl)-1H-thieno[2,3-d]imidazole-5-carboxylic acid] displayed a half-life at 1 µM in series [1] of 3 h.

Take `O=C(O)c1ccc2nc(CC3CC=C(c4cccc(OCc5ccc(Cl)c6cc(F)oc56)n4)CC3)n(C[C@@H]3CCO3)c2c1` (stereo partly drawn) [Compound 2, 2-((4-(6-((4-chloro-2-fluorobenzofuran-7-yl)methoxy)pyridin-2-yl)cyclohex-3-en-1-yl)methyl)-1-(((S)-oxetan-2-yl)methyl)-1H-benzo[d]imidazole-6-carboxylic acid]: the negative logarithm of the EC50 (pEC50) (in general, the negative decadic logarithm of the EC50, by convention in mol/L) on GLP-1 receptor (setting [3]) was 9.64. The compound also had a half-life at 1 µM in series [1] of 2.27 h. This compound also had a F in series [2] of 31.8%. Besides, in series [2] (male, iv, 1 mg/kg), the AUC(0-t) – broadly, the area under the concentration-time curve up to a stated or last time point – came to 1240 ng·h/mL; the highest level (Cmax) was 2300 ng/mL; the Tmax (in general, the time at which the peak concentration occurs) amounted to 0.083 h; the half-life was 1.15 h. Besides, in series [2] (male, po, 5 mg/kg), the AUC(0-t) is 1960 ng·h/mL; the Cmax – broadly, the maximum level reached in the sampled fluid or tissue – is 754 ng/mL; the time to peak (Tmax) stood at 1 h; the half-life is 2.56 h.

Consider `O=C(O)c1ccc2nc(CC3CC=C(c4cccc(OCc5ccc(Cl)c6cc(F)oc56)n4)CC3)n(C[C@@H]3CCO3)c2n1` (stereo partly drawn) [Compound 6, 2-((4-(6-((4-chloro-2-fluorobenzofuran-7-yl)methoxy)pyridin-2-yl)cyclohex-3-en-1-yl)methyl)-3-(((S)-oxetan-2-yl)methyl)-3H-imidazo[4,5-b]pyridine-5-carboxylic acid], for which, in series [1], the half-life at 1 µM was 1.86 h.

For the compound `N#CCC1(Cn2c(CC3CC=C(c4cccc(OCc5ccc(Cl)c6cc(F)oc56)n4)CC3)nc3ccc(C(=O)O)cc32)CC1` (stereo not shown) [Compound 28, 2-((4-(6-((4-chloro-2-fluorobenzofuran-7-yl)methoxy)pyridin-2-yl)cyclohex-3-en-1-yl)methyl)-1-((1-(cyanomethyl)cyclopropyl)methyl)-1H-benzo[d]imidazole-6-carboxylic acid], the negative-log EC50 (pEC50) on GLP-1 receptor (setting [3]) is 10.15. In addition, in series [1], the half-life at 1 µM was > 3.08 h.

Regarding `O=C(O)c1ccc2nc(CC3CC=C(c4ncc(F)c(OCc5ccc(Cl)c6cc(F)oc56)n4)CC3)n(C[C@@H]3CCO3)c2c1` (stereo partly shown) [Compound 31], at GLP-1 receptor (setting [3]), the negative-log EC50 (pEC50) was 9.72. Also, the half-life at 1 µM in series [1] was determined as 2.77 h.

In the case of `O=C(O)c1ccc2nc(CC3CC=C(c4ncc(F)c(OCc5ccc(Cl)c6ccoc56)n4)CC3)n(C[C@@H]3CCO3)c2c1` (stereo partly drawn) [Compound 3, 2-((4-(4-((4-chlorobenzofuran-7-yl)methoxy)-5-fluoropyrimidin-2-yl)cyclohex-3-en-1-yl)methyl)-1-(((S)-oxetan-2-yl)methyl)-1H-benzo[d]imidazole-6-carboxylic acid], on GLP-1 receptor (setting [3]), the pEC50 was 9.59. Besides, the half-life at 1 µM in series [1] amounted to 1.84 h.

Consider `O=C(O)c1ccc2nc(C[C@H]3CC[C@H](c4cccc(OCc5ccc(Cl)c6cc(F)oc56)n4)CC3)n(C[C@@H]3CCO3)c2c1` [Compound 27B, 2-(((1r,4S)-4-(6-((4-chloro-2-fluorobenzofuran-7-yl)methoxy)pyridin-2-yl)cyclohexyl)methyl)-1-(((S)-oxetan-2-yl)methyl)-1H-benzo[d]imidazole-6-carboxylic acid], for which, at GLP-1 receptor, the pEC50 was 9.77. This compound also registered a half-life at 1 µM in series [1] of 1.7 h. The compound further registered a F in series [2] of 44.4%. In series [2] (iv, 1 mg/kg), the area under the curve AUC(0-t) was found to be 1680 ng·h/mL, the highest concentration (Cmax) was 2830 ng/mL, the Tmax was found to be 0.083 h and the half-life is 0.707 h. Moreover, in series [2] (po, 5 mg/kg), the AUC(0-t) came to 3670 ng·h/mL, the Cmax stood at 1160 ng/mL, the time of peak concentration (Tmax) came to 0.833 h and the half-life was 4.18 h.
